Where two headings read alike, the source gives them in different places.
Legend:
[1] = test system: V9m reporter cell line expressing a 15-PGDH luciferase fusion construct; assay: 15-PGDH-luciferase fusion gene reporter induction, V9m cell line; type: cell-based; details: for percent reporter induction over basal at […]: read-out: V9M-SC3 Reporter activity % ([…]), Table 18, read-out: V9M-SC3 Reporter activity % (7.5 μM)
From the text: (§1) These cell lines are Vaco-9m (V9m), LS174T, Vaco503 (V503). […] Value of 1.0 on the Y-axis is the basal level of reporter activity in cells treated with drug free DMSO vehicle.
(§2) This Example provides data on a group of structural analogues of SW033291. Data provided includes level of induction of a 15-PGDH-luciferase fusion gene reporter, recorded as % increased luciferase activity over basal level, in three colon cancer cell lines, V9m, V503, and LS174T, engineered to contain the reporter, and treated with either 2.5 uM or 7.5 uM compound (i.e., Values are recorded on a scale where 100 indicates of doubling of luciferase activity over baseline level).
(§3) FIGS. 27(A-C) show graphs that show the level of compound's activity in inducing the 15-PGDH-luciferase fusion reporter in three different test cell line backgrounds, V9m, LS174T, and V503. Each compound was tested at two concentrations, 2.5 uM, and 7.5 uM. Y-axis is luciferase activity.
(§4) Data provided include level of induction of a 15-PGDH-luciferase fusion gene reporter, recorded as % induction of luciferase activity over basal level, in three colon cancer cell lines, V9m, V503, and LS174T, engineered to contain the reporter, and treated with either 2.5 uM or 7.5 uM compound. […] Additionally, for selected compounds is recorded the decrease in PGE2 levels in the media of compound treated A549 cells that have been stimulated with IL-1 beta. Additionally recorded for selected compounds is the effect on A549 cell viability as measured by a CellTiter-Glo assay, and the effect of compounds on A549 cell colony formation.

[2] = test system: Vaco503 reporter cell line expressing a 15-PGDH luciferase fusion construct; assay: 15-PGDH-luciferase fusion gene reporter induction, Vaco503 (V503) cell line; type: cell-based
From the text: as §1, §2, §3, §4

[3] = test system: LS174T reporter cell line expressing a 15-PGDH luciferase fusion construct; assay: 15-PGDH-luciferase fusion gene reporter induction, LS174T cell line; type: cell-based; details: Homo sapiens
From the text: as §1, §2, §3, §4

[4] = test system: 15-PGDH-luciferase fusion reporter in V9m, LS174T and V503 cell lines; assay: 15-PGDH-luciferase fusion gene reporter induction in three colon cancer cell lines (stated jointly); type: cell-based
[5] = molecular target: recombinant 15-PGDH protein (Homo sapiens (Human), UniProt P15428); assay: Inhibition of enzymatic activity of recombinant 15-PGDH in vitro; type: biochemical;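 note: activity of recombinant human 15-PGDH assayed in vitro using PGE2 as the substrate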
recombinant 15-PGDH protein, sequence (P15428 whole entry): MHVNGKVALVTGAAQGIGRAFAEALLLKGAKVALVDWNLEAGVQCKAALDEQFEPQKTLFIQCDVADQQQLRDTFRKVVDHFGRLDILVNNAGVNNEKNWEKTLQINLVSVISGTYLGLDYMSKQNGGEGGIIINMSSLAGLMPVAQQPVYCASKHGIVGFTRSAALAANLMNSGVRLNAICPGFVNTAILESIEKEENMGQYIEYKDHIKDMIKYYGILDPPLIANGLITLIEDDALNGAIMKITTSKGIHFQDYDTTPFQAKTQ

[6] = read-out: V9M reporter activity ([…]), […], % increased luciferase activity over basal level, 100 = doubling, read-out: V9M reporter activity (2.5 uM)
[7] = read-out: V9M reporter activity ([…]), […], % increased luciferase activity over basal level, read-out: V9M reporter activity (7.5 uM)
[8] = read-out: V503 reporter activity ([…]), […], % increased luciferase activity over basal level, read-out: V503 reporter activity (2.5 uM)
[9] = read-out: V503 reporter activity ([…]), […], % increased luciferase activity over basal level, read-out: V503 reporter activity (7.5 uM)
[10] = read-out: LS174T reporter activity ([…]), […], % increased luciferase activity over basal level, read-out: LS174T reporter activity (2.5 uM)
[11] = read-out: LS174T reporter activity ([…]), […], % increased luciferase activity over basal level, read-out: LS174T reporter activity (7.5 uM)
[12] = read-out: V9M-SC3 Reporter activity ([…]) (%), Table 18, […], read-out: V9M-SC3 Reporter activity (2.5 μM) (%)
[13] = read-out: V503-3H9-7 reporter activity, % ([…]), Table 18, […], read-out: V503-3H9-7 reporter activity, % (2.5 μM)
[14] = read-out: V503-3H9-7 reporter activity, % ([…]), Table 18, […], read-out: V503-3H9-7 reporter activity, % (7.5 μM)
[15] = read-out: Enzyme inhibition % ([…]), Table 18, […] compound, read-out: Enzyme inhibition % (2.5 μM)
[16] = read-out: Enzyme inhibition % ([…]), Table 18, […] compound, read-out: Enzyme inhibition % (7.5 μM)
[17] = read-out: Ls174T-SC1 reporter activity, % ([…]), Table 18, […], read-out: Ls174T-SC1 reporter activity, % (2.5μM)
[18] = read-out: Ls174T-SC1 reporter activity, % ([…]), Table 18, […], read-out: Ls174T-SC1 reporter activity, % (7.5 μM)
[19] = read-out: V9M reporter activity ([…]), Table 17, […], % induction over basal level, read-out: V9M reporter activity (2.5 μM)
[20] = read-out: V9M reporter activity ([…]), Table 17, […], read-out: V9M reporter activity (7.5 μM)
[21] = read-out: V503 reporter activity ([…]), Table 17, […], read-out: V503 reporter activity (2.5 μM)
[22] = read-out: V503 reporter activity ([…]), Table 17, […], read-out: V503 reporter activity (7.5 μM)
[23] = read-out: 1S174T reporter activity ([…]), Table 17, […], read-out: 1S174T reporter activity (7.5 μM)
[24] = read-out: LS174T reporter activity ([…]), Table 17, […], read-out: LS174T reporter activity (2.5 μM)
[25] = read-out: Enzyme inhibition % ([…]), recombinant 15-PGDH, […] compound, read-out: Enzyme inhibition % (2.5 μM)
[26] = read-out: Enzyme inhibition % ([…]), recombinant 15-PGDH, […] compound, read-out: Enzyme inhibition % (7.5 μM)

Row | SMILES | inhibition at […] [5, 15] | inhibition at […] [5, 16] | percent reporter induction over basal at […] ([1]; […]) | activation at […] [1, 19] | activation at […] [1, 20] | activation at […] [2, 21] | activation at […] [2, 22] | activation at […] [3, 23] | activation at […] [3, 24] | other results
1 | Nc1c(C(=O)O)sc2nc(-c3cccs3)cc(-c3ccccc3)c12 [SW206979, 3-Amino-4-phenyl-6-(thiophen-2-yl)thieno[2,3-b]pyridine-2-carboxylic acid] |  |  |  |  |  |  |  |  |  | activation at […] [1, 6]: -12.6%; activation at […] [1, 7]: -20.6%; activation at […] [2, 8]: 21.7%; activation at […] [2, 9]: 42.9%; activation at […] [3, 10]: 34.3%; activation at […] [3, 11]: 32.8%
2 | C[S+]([O-])c1sc2nc(-c3cccs3)cc(-c3ccccc3)c2c1N (stereo not shown) [SW208079, 2-(methylsulfinyl)-4-phenyl-6-(thiophen-2-yl)thieno[2,3-b]pyridin-3-amine] |  |  |  |  |  |  |  |  |  | Induction of 15-PGDH-luciferase reporter, in words [4]: marked loss of activity in inducing the cell line reporters
3 | COc1ccc(C)cc1N(CC(=O)Nc1cccnc1)S(=O)(=O)c1ccccc1 [526206-05-3] | 42% | 70.2% | 114% |  |  |  |  |  |  | activation at […] [1, 12]: 23.1%; activation at […] [2, 13]: 110%; activation at […] [2, 14]: 198%; activation at […] [3, 17]: 68.5%; activation at […] [3, 18]: 146%
4 | COc1ccc(OC)c(N(CC(=O)Nc2cccc(Cl)c2)S(=O)(=O)c2ccccc2)c1 [311315-25-0] | 18.7% | 34.7% |  |  |  |  |  |  |  | activation at […] [3, 17]: 62.6%; activation at […] [3, 18]: 75.8%
5 | COc1ccc(S(=O)(=O)N(CC(=O)Nc2cccc(N(C)S(C)(=O)=O)c2)c2cc(Cl)ccc2OC)cc1OC [compound 924787] |  |  |  | -1.45% | 18.1% | 21.9% | 48% | 13.1% | 4.32% | 
6 | COc1ccc(S(=O)(=O)N(CC(=O)Nc2ccccc2Br)c2cc(Cl)ccc2OC)cc1OC [compound 771081] |  |  |  | -14.2% | 7.58% | 31.9% | 51.7% | 15.4% | 5.74% | 
7 | CCCC[S+]([O-])c1ncccc1[N+](=O)[O-] (stereo not shown) [SW208069, 2-(butylsulfinyl)-3-nitropyridine] |  |  |  |  |  |  |  |  |  | activation at […] [1, 6]: -14.5%; activation at […] [1, 7]: 0.23%; activation at […] [2, 8]: 19.5%; activation at […] [2, 9]: 15.1%; activation at […] [3, 10]: 19.5%; activation at […] [3, 11]: 15.1%
8 | COc1ccc(S(=O)(=O)N(CC(=O)N2CCCCC2)c2cc(OC)ccc2OC)cc1 [SW207999] |  |  |  |  |  |  |  |  |  | Inhibition of recombinant 15-PGDH, in words [5]: lesser inhibitory activity at high concentration; inhibition at […] [5, 25]: -0.86%; inhibition at […] [5, 26]: 3.34%; Induction of 15-PGDH-luciferase reporter, in words [4]: active in inducing the 15-PGDH-luciferase reporter
9 | COc1ccc(N(CC(=O)Nc2ccccc2Br)S(=O)(=O)c2ccccc2[N+](=O)[O-])c(OC)c1 [compound 1002065] |  |  |  | 7.38% | 18.6% | 38.1% | 52.5% | 15.2% | 9.9% | 
10 | COc1ccc(S(=O)(=O)N(CC(=O)Nc2ccc(Br)cc2)c2cc(Cl)ccc2OC)cc1OC [compound 771432] |  |  |  | -7.11% | -3.13% | 33.7% | 42.8% | 4.24% | 3.86% | 
11 | COc1ccc(N(CC(=O)Nc2cccnc2)S(=O)(=O)c2ccccc2)cc1C [592469-85-7] | 6.23% | 17.2% | 18.5% |  |  |  |  |  |  | activation at […] [1, 12]: -9.74%; activation at […] [2, 13]: 10.2%; activation at […] [2, 14]: 5.3%; activation at […] [3, 17]: 3.77%; activation at […] [3, 18]: 14%
12 | COc1ccc(OC)c(N(CC(=O)Nc2cc(C)no2)S(=O)(=O)c2ccccc2)c1 [SW203704] |  |  |  |  |  |  |  |  |  | inhibition at […] [5, 25]: 4.19%; inhibition at […] [5, 26]: 7.26%; Induction of 15-PGDH-luciferase reporter, in words [4]: active in inducing the 15-PGDH-luciferase reporter
13 | COc1ccc(N(CC(=O)Nc2cccnc2)S(=O)(=O)c2ccccc2)c(OC)c1 [310875-38-8] | 23.5% | 33.4% | -16.4% |  |  |  |  |  |  | 
14 | COc1ccc(OC)c(N(CC(=O)Nc2ccc(Cl)cc2)S(=O)(=O)c2ccccc2)c1 [339589-53-6] | 35.5% | 37.4% | 4.25% |  |  |  |  |  |  | 
15 | COc1ccc(S(=O)(=O)N(CC(=O)Nc2cccc(Br)c2)c2cc(Cl)ccc2OC)cc1OC [compound 771130] |  |  |  | 8.67% | 5.84% | -10.2% | -3.48% | -0.48% | 8.66% | 
16 | COC(=O)c1ccccc1NC(=O)CN(c1cc(OC)ccc1OC)S(=O)(=O)c1ccccc1 [333449-58-4] | 9.72% | -3.12% | 71.2% |  |  |  |  |  |  | 
17 | COc1ccc(OC)c(N(CC(=O)Nc2cccnc2)S(=O)(=O)c2ccc(C)cc2)c1 [505072-23-1] | 67.4% | 84.6% | 71.5% |  |  |  |  |  |  | 
18 | COc1ccccc1N(CC(=O)Nc1cccnc1)S(=O)(=O)c1ccccc1 [367929-80-4] | 8.95% | 34.8% | -19% |  |  |  |  |  |  | 
19 | COc1ccc(OC)c(N(CC(=O)Nc2cccnc2)S(C)(=O)=O)c1 [527699-66-7] | -20.6% | 27.9% | -37.2% |  |  |  |  |  |  | 
20 | COc1ccc(N(CC(=O)Nc2ccccc2Br)S(=O)(=O)c2ccc(NC(C)=O)cc2)cc1 [compound 771064] |  |  |  | 43.3% | -19.2% | -13.8% | -24.8% | -29.6% | -2.11% | 
